Measured values: publication PMC10343752, “Anti-α-Glucosidase, SAR Analysis, and Mechanism Investigation of Indolo[1,2-b]isoquinoline Derivatives” (Molecules, 2023)

Assays:
α-glucosidase [1] = target: T1, α-glucosidase (Saccharomyces cerevisiae, UniProt P53341); assay: CD spectra, secondary structure contents of α-glucosidase; assay type: binding; conditions: for effect on CD band intensity of α-glucosidase: 190~280 nm
T1 construct: purchased Sigma-Aldrich
Text: CD spectra were also monitored to study the effect of compounds 9, 11, 13, 18, and 19 on the conformational changes of α-glucosidase. As shown in Figure 7a–e, α-glucosidase presented two negative CD bands in the region of 190~280 nm, which was owed to the electronic transitions of n→π* of α-helical bonds. […] While treatment of compounds 9, 13, 18, and 19 led to an increase of α-helix and a reduction of β-sheet, β-turn, and random coils, respectively (Table 3). CD spectra have been an important method by which to study protein structural changes and secondary structural content. Previous research has shown that the interaction of an inhibitor with α-glucosidase caused the partial folding and loosening of the α-glucosidase structure.
(§1) α-Glucosidase from Saccharomyces cerevisiae (EC 3.2.1.20) was purchased from Sigma-Aldrich. p-Nitrophenyl-α-D-[…] (PNPG) was obtained from Abcam. Other reagents were commercially available.
Compounds 9, 11, 13, 18, and 19 with different concentrations were added into α-glucosidase solution (31 μM) and incubated for 5 min, respectively, then the CD spectra of the mixture were recorded. CDNN was used to analyze the ratio of protein secondary conformations.

α-glucosidase [2] = target: T1, α-glucosidase; assay: α-glucosidase inhibition kinetics (enzyme kinetics and Lineweaver-Burk substrate kinetics); assay type: biochemical; conditions: for inhibition type (substrate kinetics): Lineweaver-Burk plots; for Ki / Kis / Vmax: inhibition kinetics constant; for reversibility of inhibition (enzyme kinetics): plots of remaining enzyme activity versus enzyme concentration
Text: Compounds 9, 11, 13, 18, and 19 with different α-glucosidase inhibitory activity were selected as representative compounds to reveal the inhibition mechanism of indolo[1,2-b]isoquinoline derivatives (1–21) on α-glucosidase by the implementation of an inhibition kinetics study. […] For substrate kinetics (Figure 5b,d,f,h,j), the Lineweaver-Burk plots of remaining enzyme activity versus […] treated with compounds 9, 11, 13, 18, and 19 intersected at one point in the second quadrant, respectively. The inhibition kinetics study was an effective method by which to understand the inhibition mechanism of the inhibitor against the target protein. In a substrate kinetics study, different inhibition mechanisms of inhibitors manifested as different intersection positions of Lineweaver-Burk plots. […] Moreover, compounds 9, 11, 13, 18, and 19 bind with both free enzyme and enzyme-substrate complexes to inhibit α-glucosidase. The inhibition kinetics constants of compounds 9, 11, 13, 18, and 19 were obtained and are listed in Table 2, including Ki, Kis, Km, and Vmax values, which might be helpful to understand the inhibition mechanism.
as §1
The kinetics of enzyme inhibition for compounds 9, 11, 13, 18, and 19 were obtained by plotting the enzymatic reaction rate versus enzyme concentration with or without compounds 9, 11, 13, 18, and 19, and the kinetics of substrate inhibition were measured using Lineweaver Burk plots of the enzymatic reaction rate versus substrate concentration with or without compounds 9, 11, 13, 18, and 19 [37, 38, 39, 40].

hepatocytes LO2 cells = assay: In vitro cytotoxicity, MTT method; assay type: cell-based; conditions: 24 h, up to a concentration of 32 μM
Procedure: The in vitro cytotoxicity of compounds 9, 11, 13, 18, and 19 against hepatocytes LO2 cells was detected using the MTT method.
The in vitro cytotoxicity of compound 11 against hepatocytes LO2 cells was assayed using the MTT method. LO2 cells were cultured in DMEM containing 10% FBS, 100 IU/mL penicillin, and 100 IU/mL streptomycin at 37 °C under 5% CO2. An amount of 100 μL of LO2 cells was seeded into a 96-well plate (5000 per well) for 24 h, and was then treated with compounds 9, 11, 13, 18, and 19 for 24 h, respectively. Then, MTT solution was added into each well and incubated for 4 h. An amount of […] of DMSO was used to dissolve the obtained crystallization. Then, this absorbance was determined at 490 nm. Each sample was performed in triplicate.

α-glucosidase [3] = target: T1, α-glucosidase; assay: 3D fluorescence spectra of α-glucosidase with compounds; assay type: binding; conditions: α-glucosidase 5 μM
Text: The 3D fluorescence spectra of α-glucosidase with compounds 9, 11, 13, 18, and 19 was investigated to analyze the effect of compounds on the structure of α-glucosidase, respectively. Two important characteristic peaks appeared in the 3D fluorescence spectra of α-glucosidase (Figure 6a,c,e,g,i), including Peak 1 ([…]), corresponding to the main chain structure of the polypeptide, and Peak 2 ([…]), corresponding to tyrosine and tryptophan residues. […] (Figure 6b,d,f,h,j). Previously, 3D fluorescence spectra have been used to determine protein conformation changes.
as §1
Compounds 9, 11, 13, 18, and 19 were added to α-glucosidase (5 μM) in 100 μL of PBS and incubated for 5 min, then the 3D fluorescence spectra of the mixture were recorded [32]^. The excitation and emission wavelengths were 200–500 nm and the slit width was 2.5 nm. All data were imported into Matlab for processing.

[4] = target: T2, α-glucosidase from Saccharomyces cerevisiae (Saccharomyces cerevisiae, UniProt P53341); assay: biochemical; assay type: biochemical; conditions: for IC50: α-glucosidase 0.1 U/mL, PNPG 0.25 mM, pH 6.8, 37 °C, read-out: α-Glucosidase inhibitory activity IC50
T2 construct: purchased Sigma-Aldrich
Procedure: as §1
After the addition of PNPG (0.25 mM), the change in absorbance was measured at 405 nm. […] All experiments were performed four times.

[5] = molar ratio [α-Glu]:[Comp.] 1:1
[6] = molar ratio [α-Glu]:[Comp.] 1:2
[7] = molar ratio [α-Glu]:[Comp.] 1:3

T1 sequence (P53341 whole entry): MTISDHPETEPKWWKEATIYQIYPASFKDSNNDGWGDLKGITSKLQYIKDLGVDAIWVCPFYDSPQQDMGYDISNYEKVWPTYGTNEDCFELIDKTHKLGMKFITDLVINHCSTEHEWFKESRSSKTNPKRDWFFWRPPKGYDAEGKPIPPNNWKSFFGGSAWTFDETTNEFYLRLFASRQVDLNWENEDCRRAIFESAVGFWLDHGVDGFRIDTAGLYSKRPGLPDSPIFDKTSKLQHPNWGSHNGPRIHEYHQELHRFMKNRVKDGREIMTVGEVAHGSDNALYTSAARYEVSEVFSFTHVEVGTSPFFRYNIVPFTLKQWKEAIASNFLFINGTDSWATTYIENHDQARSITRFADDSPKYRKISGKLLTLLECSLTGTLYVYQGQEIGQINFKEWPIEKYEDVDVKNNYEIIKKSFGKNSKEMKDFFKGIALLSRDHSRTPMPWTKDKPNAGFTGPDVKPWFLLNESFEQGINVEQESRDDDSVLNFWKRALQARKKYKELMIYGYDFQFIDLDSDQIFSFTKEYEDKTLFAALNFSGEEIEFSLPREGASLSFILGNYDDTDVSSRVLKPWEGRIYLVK
T2 sequence (P53341 whole entry): as above

| IC50 [4] [µM] | Compound | effect on CD band intensity of α-glucosidase (α-glucosidase [1]) | Rndm Coil (α-glucosidase [1]; [5]) [%] | α-Helix (α-glucosidase [1]; [5]) [%] | β-Sheet (α-glucosidase [1]; [5]) [%] | β-Turn (α-glucosidase [1]; [5]) [%] | Rndm Coil (α-glucosidase [1]; [6]) [%] | α-Helix (α-glucosidase [1]; [6]) [%] | β-Sheet (α-glucosidase [1]; [6]) [%] | β-Turn (α-glucosidase [1]; [6]) [%] | Rndm Coil (α-glucosidase [1]; [7]) [%] | α-Helix (α-glucosidase [1]; [7]) [%] | β-Sheet (α-glucosidase [1]; [7]) [%] | β-Turn (α-glucosidase [1]; [7]) [%] | inhibition type (substrate kinetics) (α-glucosidase [2]) | Ki (α-glucosidase [2]) [µM] | Kis (α-glucosidase [2]) [µM] | Vmax (α-glucosidase [2]) [µM/min/mg] | reversibility of inhibition (enzyme kinetics) (α-glucosidase [2]) | effect on cell viability (hepatocytes LO2 cells) | other results |
| --- | --- | --- | --- | --- | --- | --- | --- | --- | --- | --- | --- | --- | --- | --- | --- | --- | --- | --- | --- | --- | --- |
| 32.8 ± 0.72 | COC(=O)c1ccc(-c2c3n(c(=O)c4ccccc24)-c2ccccc2C3=O)cc1 [Compound 12] |  |  |  |  |  |  |  |  |  |  |  |  |  |  |  |  |  |  |  |  |
| 17 ± 0.37 | Cc1ccc2c(c1)-n1c(c(-c3ccccc3)c3ccccc3c1=O)C2=O [Compound 14] |  |  |  |  |  |  |  |  |  |  |  |  |  |  |  |  |  |  |  |  |
| 9.25 ± 0.41 | O=C1c2ccc(Cl)cc2-n2c1c(-c1ccccc1)c1ccccc1c2=O [Compound 15] |  |  |  |  |  |  |  |  |  |  |  |  |  |  |  |  |  |  |  |  |
| 10.1 ± 0.36 | O=C1c2cc(F)ccc2-n2c1c(-c1ccccc1)c1ccccc1c2=O [Compound 16] |  |  |  |  |  |  |  |  |  |  |  |  |  |  |  |  |  |  |  |  |
| 7.95 ± 0.43 | Cc1ccc2c(=O)n3c(c(-c4ccccc4)c2c1)C(=O)c1ccccc1-3 [Compound 17] |  |  |  |  |  |  |  |  |  |  |  |  |  |  |  |  |  |  |  |  |
| 11.9 ± 0.36 | Cc1ccc2c(=O)n3c(c(-c4ccccc4)c2c1)C(=O)c1cc(F)ccc1-3 [Compound 20] |  |  |  |  |  |  |  |  |  |  |  |  |  |  |  |  |  |  |  |  |

| Compound | IC50 [4] [µM] | effect on CD band intensity of α-glucosidase (α-glucosidase [1]) | Rndm Coil (α-glucosidase [1]; [5]) [%] | α-Helix (α-glucosidase [1]; [5]) [%] | β-Sheet (α-glucosidase [1]; [5]) [%] | β-Turn (α-glucosidase [1]; [5]) [%] | Rndm Coil (α-glucosidase [1]; [6]) [%] | α-Helix (α-glucosidase [1]; [6]) [%] | β-Sheet (α-glucosidase [1]; [6]) [%] | β-Turn (α-glucosidase [1]; [6]) [%] | Rndm Coil (α-glucosidase [1]; [7]) [%] | α-Helix (α-glucosidase [1]; [7]) [%] | β-Sheet (α-glucosidase [1]; [7]) [%] | β-Turn (α-glucosidase [1]; [7]) [%] | inhibition type (substrate kinetics) (α-glucosidase [2]) | Ki (α-glucosidase [2]) [µM] | Kis (α-glucosidase [2]) [µM] | Vmax (α-glucosidase [2]) [µM/min/mg] | reversibility of inhibition (enzyme kinetics) (α-glucosidase [2]) | effect on cell viability (hepatocytes LO2 cells) | other results |
| --- | --- | --- | --- | --- | --- | --- | --- | --- | --- | --- | --- | --- | --- | --- | --- | --- | --- | --- | --- | --- | --- |
| O=C1c2ccccc2-n2c1c(-c1ccc3ccccc3c1)c1ccccc1c2=O [Compound 11] | 3.44 ± 0.36 | concentration-dependent increase in the CD band intensity | 35.60 | 8.40 | 34.30 | 20.00 | 35.60 | 8.20 | 34.70 | 20.00 | 35.80 | 7.80 | 35.20 | 20.10 | mixed-type inhibition | 0.46 | 14.57 | 0.06 | reversible | no significant effect on cell viability | effect on fluorescence intensity of Peak 1 and Peak 2 of α-glucosidase (α-glucosidase [3]): decrease the fluorescence intensity; anti-α-glucosidase activity, times stronger than acarbose [4]: ~ 186 times |
| O=C1c2cc(Cl)ccc2-n2c1c(-c1ccccc1)c1ccccc1c2=O [Compound 13] | 6.35 ± 0.25 | decrease in CD band intensity | 35.60 | 8.80 | 40.60 | 19.30 | 35.40 | 9.10 | 39.60 | 19.40 | 35.10 | 11.20 | 34.60 | 19.60 | mixed-type inhibition | 3.62 | 11.65 | 0.08 | reversible | no significant effect on cell viability | effect on fluorescence intensity of Peak 1 and Peak 2 of α-glucosidase (α-glucosidase [3]): decrease the fluorescence intensity |
| O=C1c2ccccc2-n2c1c(-c1ccccc1)c1ccc(F)cc1c2=O [Compound 18] | 7.97 ± 0.31 | decrease in CD band intensity | 35.00 | 11.10 | 35.30 | 19.40 | 35.00 | 11.20 | 35.00 | 19.30 | 34.70 | 12.80 | 35.00 | 19.30 | mixed-type inhibition | 4.62 | 12.34 | 0.08 | reversible | no significant effect on cell viability | effect on fluorescence intensity of Peak 1 and Peak 2 of α-glucosidase (α-glucosidase [3]): decrease the fluorescence intensity |
| Cc1ccc2c(c1)-n1c(c(-c3ccccc3)c3cc(C)ccc3c1=O)C2=O [Compound 19] | 41.2 ± 0.76 | decrease in CD band intensity | 34.60 | 12.90 | 31.80 | 19.40 | 34.70 | 11.50 | 34.20 | 19.30 | 34.90 | 12.80 | 34.40 | 19.30 | mixed-type inhibition | 8.38 | 42.30 | 0.05 | reversible | no significant effect on cell viability | effect on fluorescence intensity of Peak 1 and Peak 2 of α-glucosidase (α-glucosidase [3]): decrease the fluorescence intensity |
